{"source": "patent US20250235562A1", "about": "“USE OF SECOND NEAR-INFRARED ORGANIC FLUORESCENT COMPOUND IN PREPARATION OF BIOIMAGING CONTRAST AGENT AND IN VASCULAR FLUORESCENCE IMAGING” (INNER MONGOLIA UNIVERSITY, priority 2024, published 2025)", "assay": "Photostability test under continuous white light irradiation", "format": "physicochemical", "details": "50 mW·cm^−2 white light, continuous irradiation 40 min", "procedure": "(3) Photostability test of the nanoimaging agent Y6CT-NPs: commercial imaging agent indocyanine green (ICG) was selected as a reference. Y6CT-NPs and ICG were irradiated continuously by 50 mW·cm^−2 white light (laparoscopic LED cold light source) for 40 min, and the fluorescence intensity of the two were recorded at different time points, a ratio of which to the initial fluorescence intensity was calculated to compare the attenuation degree of fluorescence intensity and photostability between the two."}
{"smiles": "CC1(C)C(/C=C/C=C/C=C/C=C2\\N(CCCCS(=O)(=O)O)c3ccc4ccccc4c3C2(C)C)=[N+](CCCCS(=O)(=O)[O-])c2ccc3ccccc3c21", "note": "[ICG, indocyanine green]", "values": [{"measurement": "change of fluorescence intensity after continuous irradiation", "value": "decreases significantly"}, {"measurement": "fluorescence intensity at 40 min relative to the initial fluorescence intensity", "value": 30, "unit": "%"}]}
